Assay results published in patent publication US10047069B2, “Compositions comprising an inhibitor of lysine specific demethylase-1” (Celgene Quanticel Research, Inc., priority 2015, dated 2018).
Converted amounts (≈) assume the structure as drawn.

Columns and labels:
Format in all cases: physicochemical
[1] = Stability post-storage at 40° C./75% RH assessed by XRPD; settings: form change assessed by XRPD
Protocol: (§1) Representative samples for the twenty-six forms were further analysed by NMR/IC and DSC. The stability of the samples after storage at 40° C./75% RH was also assessed by XRPD. Solubility in FeSSIF media was determined for selected samples. […] IC was employed to determine the molar equivalence for inorganic counterions, sulphate and phosphate.

[2] = Thermal stability from onset of DSC events; settings: onsets of DSC events greater than 200° C.
Protocol: DSC data were collected on a Mettler DSC 823E equipped with a 34 position auto-sampler. The instrument was calibrated for energy and temperature using certified indium. Typically, 0.9-6 mg of each sample, in a pin-holed aluminum pan, was heated at 10° C./min from 25° C. to 350° C. A nitrogen purge at 50 ml/min was maintained over the sample. The instrument control and data analysis software was STARe v12.1.
The twenty remaining forms have thermal events occurring from as low as ˜30° C. These may be solvated/hydrated forms.

[3] = Thermodynamic solubility in FeSSIF; settings: for Solubility in FeSSiF: fed state simulated intestinal fluid (FeSSIF), equilibrated at 25° C. for 24 hours; for XRPD of residue: residue of the FeSSIF solubility test, analysed by XRPD as a damp solid
Protocol: Solubility was determined by suspending sufficient compound in fed state simulated intestinal fluid (FeSSIF) to give a maximum final concentration of >3 mg/ml of the parent free-form of the compound. The suspension was equilibrated at 25° C. for 24 hours then the pH was measured. The suspension was then filtered through a glass fibre C filter. The residue was analysed by XRPD as a damp solid. The filtrate was diluted by an appropriate factor prior to analysis by HPLC. Quantitation by HPLC was performed with reference to a standard solution of approximately 0.2 mg/ml in DMSO. Different volumes of the standard, diluted and undiluted sample solutions were injected. The solubility was calculated using the peak areas determined by integration of the peak found at the same retention time as the principal peak in the standard injection. Analysis was performed on an Agilent HP1100 series system equipped with a diode array detector and using ChemStation software vB.04.03.

[4] = Salt screen assessment compared to the HCl salt
Protocol: as §1

SMILES | Stability post-storage at 40° C./75% RH [1] | also measured
COc1ccc(-c2c(-c3ccc(C#N)c(F)c3)nc(N3CCC(N)CC3)n(C)c2=O)cc1F [BA 1, 4-[2-(4-aminopiperidin-1-yl)-5-(3-fluoro-4-methoxyphenyl)-1-methyl-6-oxo-1,6-dihydropyrimidin-4-yl]-2-fluorobenzonitrile] | No significant | thermal stability [2]: good thermal stability; Solubility in FeSSiF [3]: 880 µg/mL (≈ 1950 µM); XRPD of residue [3]: Poor crystallinity; stability and solubility when compared to the HCl salt [4]: improved stability and solubility
COc1ccc(-c2c(-c3ccc(C#N)c(F)c3)nc(N3CCC(N)CC3)n(C)c2=O)cc1F [BA 2, 4-[2-(4-aminopiperidin-1-yl)-5-(3-fluoro-4-methoxyphenyl)-1-methyl-6-oxo-1,6-dihydropyrimidin-4-yl]-2-fluorobenzonitrile] | No significant | 
COc1ccc(-c2c(-c3ccc(C#N)c(F)c3)nc(N3CCC(N)CC3)n(C)c2=O)cc1F [BSA 1, 4-[2-(4-aminopiperidin-1-yl)-5-(3-fluoro-4-methoxyphenyl)-1-methyl-6-oxo-1,6-dihydropyrimidin-4-yl]-2-fluorobenzonitrile] | No form change | thermal stability [2]: good thermal stability; Solubility in FeSSiF [3]: 840 µg/mL (≈ 1860 µM); XRPD of residue [3]: BSA 1 - poor; stability and solubility when compared to the HCl salt [4]: improved stability and solubility
COc1ccc(-c2c(-c3ccc(C#N)c(F)c3)nc(N3CCC(N)CC3)n(C)c2=O)cc1F [BSA 2, 4-[2-(4-aminopiperidin-1-yl)-5-(3-fluoro-4-methoxyphenyl)-1-methyl-6-oxo-1,6-dihydropyrimidin-4-yl]-2-fluorobenzonitrile] | Extra peaks observed | 
COc1ccc(-c2c(-c3ccc(C#N)c(F)c3)nc(N3CCC(N)CC3)n(C)c2=O)cc1F [CA 1, 4-[2-(4-aminopiperidin-1-yl)-5-(3-fluoro-4-methoxyphenyl)-1-methyl-6-oxo-1,6-dihydropyrimidin-4-yl]-2-fluorobenzonitrile] | Pattern change | 
COc1ccc(-c2c(-c3ccc(C#N)c(F)c3)nc(N3CCC(N)CC3)n(C)c2=O)cc1F [CA 2, 4-[2-(4-aminopiperidin-1-yl)-5-(3-fluoro-4-methoxyphenyl)-1-methyl-6-oxo-1,6-dihydropyrimidin-4-yl]-2-fluorobenzonitrile] | No form change | 
COc1ccc(-c2c(-c3ccc(C#N)c(F)c3)nc(N3CCC(N)CC3)n(C)c2=O)cc1F [FUA 1, 4-[2-(4-aminopiperidin-1-yl)-5-(3-fluoro-4-methoxyphenyl)-1-methyl-6-oxo-1,6-dihydropyrimidin-4-yl]-2-fluorobenzonitrile] | Pattern change | 
COc1ccc(-c2c(-c3ccc(C#N)c(F)c3)nc(N3CCC(N)CC3)n(C)c2=O)cc1F [FUA 2, 4-[2-(4-aminopiperidin-1-yl)-5-(3-fluoro-4-methoxyphenyl)-1-methyl-6-oxo-1,6-dihydropyrimidin-4-yl]-2-fluorobenzonitrile] | Increased | 
COc1ccc(-c2c(-c3ccc(C#N)c(F)c3)nc(N3CCC(N)CC3)n(C)c2=O)cc1F [FUA 3, 4-[2-(4-aminopiperidin-1-yl)-5-(3-fluoro-4-methoxyphenyl)-1-methyl-6-oxo-1,6-dihydropyrimidin-4-yl]-2-fluorobenzonitrile] | Pattern change | 
COc1ccc(-c2c(-c3ccc(C#N)c(F)c3)nc(N3CCC(N)CC3)n(C)c2=O)cc1F [MA 1, 4-[2-(4-aminopiperidin-1-yl)-5-(3-fluoro-4-methoxyphenyl)-1-methyl-6-oxo-1,6-dihydropyrimidin-4-yl]-2-fluorobenzonitrile] | Amorphous | Solubility in FeSSiF [3]: 630 µg/mL (≈ 1400 µM); XRPD of residue [3]: Amorphous
COc1ccc(-c2c(-c3ccc(C#N)c(F)c3)nc(N3CCC(N)CC3)n(C)c2=O)cc1F [MA 2, 4-[2-(4-aminopiperidin-1-yl)-5-(3-fluoro-4-methoxyphenyl)-1-methyl-6-oxo-1,6-dihydropyrimidin-4-yl]-2-fluorobenzonitrile] | Pattern change | 
COc1ccc(-c2c(-c3ccc(C#N)c(F)c3)nc(N3CCC(N)CC3)n(C)c2=O)cc1F [MA 3, 4-[2-(4-aminopiperidin-1-yl)-5-(3-fluoro-4-methoxyphenyl)-1-methyl-6-oxo-1,6-dihydropyrimidin-4-yl]-2-fluorobenzonitrile] | Pattern change | 
COc1ccc(-c2c(-c3ccc(C#N)c(F)c3)nc(N3CCC(N)CC3)n(C)c2=O)cc1F [MLNA 1, 4-[2-(4-aminopiperidin-1-yl)-5-(3-fluoro-4-methoxyphenyl)-1-methyl-6-oxo-1,6-dihydropyrimidin-4-yl]-2-fluorobenzonitrile] | Pattern change | 
COc1ccc(-c2c(-c3ccc(C#N)c(F)c3)nc(N3CCC(N)CC3)n(C)c2=O)cc1F [MLNA 2, 4-[2-(4-aminopiperidin-1-yl)-5-(3-fluoro-4-methoxyphenyl)-1-methyl-6-oxo-1,6-dihydropyrimidin-4-yl]-2-fluorobenzonitrile] | Pattern change | 
COc1ccc(-c2c(-c3ccc(C#N)c(F)c3)nc(N3CCC(N)CC3)n(C)c2=O)cc1F [MSA 1, 4-[2-(4-aminopiperidin-1-yl)-5-(3-fluoro-4-methoxyphenyl)-1-methyl-6-oxo-1,6-dihydropyrimidin-4-yl]-2-fluorobenzonitrile] | No form change | thermal stability [2]: good thermal stability; Solubility in FeSSiF [3]: 1010 µg/mL (≈ 2240 µM); XRPD of residue [3]: Largely amorphous; stability and solubility when compared to the HCl salt [4]: improved stability and solubility
COc1ccc(-c2c(-c3ccc(C#N)c(F)c3)nc(N3CCC(N)CC3)n(C)c2=O)cc1F [MSA 2, 4-[2-(4-aminopiperidin-1-yl)-5-(3-fluoro-4-methoxyphenyl)-1-methyl-6-oxo-1,6-dihydropyrimidin-4-yl]-2-fluorobenzonitrile] | Extra peaks observed | 
COc1ccc(-c2c(-c3ccc(C#N)c(F)c3)nc(N3CCC(N)CC3)n(C)c2=O)cc1F [PHOA 2, 4-[2-(4-aminopiperidin-1-yl)-5-(3-fluoro-4-methoxyphenyl)-1-methyl-6-oxo-1,6-dihydropyrimidin-4-yl]-2-fluorobenzonitrile] | Pattern change | 
COc1ccc(-c2c(-c3ccc(C#N)c(F)c3)nc(N3CCC(N)CC3)n(C)c2=O)cc1F [PHOA 3, 4-[2-(4-aminopiperidin-1-yl)-5-(3-fluoro-4-methoxyphenyl)-1-methyl-6-oxo-1,6-dihydropyrimidin-4-yl]-2-fluorobenzonitrile] | Reduced crystallinity | 
COc1ccc(-c2c(-c3ccc(C#N)c(F)c3)nc(N3CCC(N)CC3)n(C)c2=O)cc1F [SUCA 1, 4-[2-(4-aminopiperidin-1-yl)-5-(3-fluoro-4-methoxyphenyl)-1-methyl-6-oxo-1,6-dihydropyrimidin-4-yl]-2-fluorobenzonitrile] |  | Solubility in FeSSiF [3]: 960 µg/mL (≈ 2130 µM); XRPD of residue [3]: Amorphous
COc1ccc(-c2c(-c3ccc(C#N)c(F)c3)nc(N3CCC(N)CC3)n(C)c2=O)cc1F [SUCA 2, 4-[2-(4-aminopiperidin-1-yl)-5-(3-fluoro-4-methoxyphenyl)-1-methyl-6-oxo-1,6-dihydropyrimidin-4-yl]-2-fluorobenzonitrile] | Pattern change | 
COc1ccc(-c2c(-c3ccc(C#N)c(F)c3)nc(N3CCC(N)CC3)n(C)c2=O)cc1F [TAR 1, 4-[2-(4-aminopiperidin-1-yl)-5-(3-fluoro-4-methoxyphenyl)-1-methyl-6-oxo-1,6-dihydropyrimidin-4-yl]-2-fluorobenzonitrile] | Pattern change | 
COc1ccc(-c2c(-c3ccc(C#N)c(F)c3)nc(N3CCC(N)CC3)n(C)c2=O)cc1F [free base, 4-[2-(4-aminopiperidin-1-yl)-5-(3-fluoro-4-methoxyphenyl)-1-methyl-6-oxo-1,6-dihydropyrimidin-4-yl]-2-fluorobenzonitrile] |  | Solubility in FeSSiF [3]: 280 µg/mL (≈ 620 µM)
COc1ccc(-c2c(-c3ccc(C#N)c(F)c3)nc(N3CCC(N)CC3)n(C)c2=O)cc1F [pTSA 2, 4-[2-(4-aminopiperidin-1-yl)-5-(3-fluoro-4-methoxyphenyl)-1-methyl-6-oxo-1,6-dihydropyrimidin-4-yl]-2-fluorobenzonitrile] | Slight change in pattern | 
